The values below come from patent US8603806B2, “Materials and methods for cell-based assays” (The Ohio State Universtiy Research Foundation, priority 2005, dated 2013).

Converted amounts (≈) assume the structure as drawn. “Also recorded” adds a separate entry of the source. Read-outs that look alike come from different tables or passages of the source. Where only a bound is given, the exact number is not on record here.

The term EC50 denotes the concentration at which the effect is half-maximal.

For data set [1], the system named is ES cells. The experiment in a line: 3-D high-density ES tissue constructs cytotoxicity. Format: cell-based. As to conditions: for Extent of cell kill: 3-D high-density, at maximum dose; for Rf (resistance factor): ratio between EC50 and Ig50; for EC50: 3-D high-density cell cultures, 50% of maximum fluorescence reduction, exposure four or six days after seeding. From the text:
The effects of various drugs on ES cells grown in 3-D after reaching a high cell density (exposure four or six days after seeding the matrices) were studied and the results are shown in FIG. 14. EC50 (the concentration required for obtaining 50% of a maximum effect) is used to evaluate a drug's cytotoxicity effect on a high-density 3-D cell or tissue construct. Here, if the elimination of cells is considered as the maximum effect of a chemical, an EC50 is not always reached. […] For this case, the maximum effects were defined as the fluorescence reduction caused by the saturation concentration (DM and DPH) or a very high dose compared to doses used in 2-D assays (Penicillin G and 5-FU). In addition, it was also noticed that maximal effects changed along with time, so the time point with the largest value of the maximal effects was used for cytotoxicity definition. Rf (resistance factor) is defined as the ratio between EC50 and Ig50.

The test system of data set [2] is ES cells. The experiment in a line: 2-D cytotoxicity assay, ES-GFP cells in 96-well plates. As to conditions: concentration causing 50% reduction in exponential-phase specific growth rate, drug added one day after inoculation; for IC50: read-out: 2-D cultures Ig50. Format: cell-based. Here is the method: The 2-D cytotoxicity assay was performed in 96-well plates by inoculating 5000 cells into each well containing 150 μl of ES medium. The drug was added one day after inoculation. Fluorescent signals were measured twice per day in the culture plates. The fluorescence given by live cells was calculated as the signals obtained after replacing culture medium with the same volume of PBS minus the blanks.
(§1) With the exponential-phase specific growth rate data, the cytotoxicity of various chemicals can be better evaluated by their Ig50 values defined as the concentration of the chemical causing 50% reduction in the exponential-phase specific cell growth rate.

Data set [3] deals with HT-29-GFP. As to conditions: for times more resistance in tumor-like structure: compared with the results from 3-D proliferation assays (3-D low density cells); for effectiveness on high density colon cancer cells / time after drug adding at which fluorescence changed: tumor-like constructs. From the text:
(§2) Colon cancer is the third most frequently occurring cancer in the US and causes large numbers of deaths, second only to lung cancer. Treatment of progressed colon cancer involves surgical extraction combining chemotherapy and immunotherapy. The survival rate of colon cancer patients is only 55% due to the low effectiveness of these therapies. […] Butyric acid is a biological response modifier (BRM) and it acts synergistically with 5-FU against colorectal cancers by decreasing thymidine kinase mRNA. As a BRM, it can also increase cell specific productivity at the expense of inhibiting cell growth. […] In this case, the cytotoxicity of a chemical in 3-D cultures was defined as a concentration range of the chemical.
Gemcitabine is an S-phase specific drug.

The test system of data set [4] is embryonic stem cell. As to conditions: embryotoxicity test previously reported; cited from earlier work.
Data set [5] deals with HT-29-GFP.
Description: as §2

Data set [6] concerns HT-29-GFP. The experiment in a line: HT-29-GFP proliferation assay, 2-D with cell counting. In kind it is cell-based. As to conditions: Homo sapiens, read-out: 2-D with cell counting (Ig50).
Description: as §2

In a further data set the test system is HT-29. The experiment in a line: Perfusion culture of HT-29 in microfluidic bioreactor array. As to conditions: 2 μg/ml fed continuously from beginning of perfusion; vs control without drug. In kind it is cell-based, human.
The test system of data set [7] is embryonic stem cell. As to conditions: embryotoxicity test previously reported; cited from earlier work. This is another data set of the same source.
The subject of data set [8] is ES cells. The experiment in a line: 3-D cytotoxicity (proliferation) assay, ES-GFP cells in PET scaffolds, low density. In kind it is cell-based. As to conditions: for IC50: read-out: 3-D cultures Ig50; for Ig50 in 2-D as times of Ig50 in 3-D: ratio 2-D/3-D. The protocol:
For the 3-D cytotoxicity assay, 25000 cells in 25 μl medium were seeded into each PET scaffold. After 6 h incubation to allow cell attachment, 180 μl medium were added to each well and incubated for another 18 h before transferring the seeded matrix to the center of the microbioreactor chamber containing 3 ml of the ES medium on the modified 96-well plate. The plates were then stacked onto a rotational shaker and put into a 37° C. CO2 incubator. The culture fluorescence was measured twice per day with a Cytofluor Series 4000 plate reader. Fluorescence signals from live cells were calculated as the values from the central well of the bioreactor minus the background from the surrounding medium and scaffold.
as §1

The subject of data set [9] is ES-GFP cells. The experiment in a line: Acute cytotoxicity live-cell kinetic assay, 3-D ES-GFP. As to conditions: high density 3-D ES-GFP, 2000 RFU; different doses. Format: cell-based. The protocol:
For the live-cell kinetic assays, acute cellular events can be easily characterized with online continuous fluorescence measurements without human intervention. The 3-D cell-based assay system was thus applied to test the response of ES-GFP cells to a surfactant, Triton X-100 (Sigma Chemical Company, St. Louis, Mo.). ES-GFP cells in the 3-D system were cultured to reach a high density with 2000 RFU fluorescence intensity. After applying different doses of Triton X-100, the culture plate was immediately put into the plate reader (Cytofluor Series 4000) at 37° C., with the cycle number set at 80 and cycle time at 3 min. The mixing time before each reading was 10 seconds. […] In general, increasing the surfactant concentration in the medium increased cell death, which followed a first order kinetics as indicated by the linear semilogarithmic plot (FIG. 10B). Triton X-100 is a non-ionic detergent commonly used to solubilize membrane proteins. The specific death rate kd at each Triton X-100 concentration can be estimated from the negative slope of the semi-log plots. […] The loss in the fluorescence signal for the control experiment without the surfactant was negligible and the slight decrease could be attributed to a slow increase in the medium pH outside the CO2 incubator. GFP fluorescence is marginally affected by the solution pH when it is in the neutral pH range.

The subject of data set [10] is ES-GFP cells. The experiment in a line: Effect of fibronectin coating of PET matrix on ES-GFP cell growth. Format: cell-based. Here is the method:
Similarly, ES-GFP cells were used to study the effects of fibronectin coating of the PET matrix on cell growth. Fibronectin is involved in many cellular processes, one of which is to serve as a general cell adhesion molecule to help cells anchor onto proteoglycan or collagen substrates. Fibronectin is a commonly used extracellular matrix protein to enhance cell adhesion on the tissue scaffold. PET matrices were soaked in 10 μg/ml fibronectin (Sigma Chemical Company, St. Louis, Mo.) for 12 hours before use. The fibronectin-coated matrices were then placed in the growth medium and seeded with ES-GFP cells from the top of the scaffolds. […] Also, cells cultured in the fibronectin-coated matrix reached a maximum fluorescence intensity of 4000 RFU that was ˜2.5 times of that without fibronectin coating at 128 h. […] Cell spreading can also stimulate cell proliferation and contributes to uniform cell distribution in the 3-D matrix, which in turn allowed more light emission from the matrix. It is noted that cells developed different morphologies in these two matrices, with large aggregates formed in the matrix without fibronectin coating (FIG. 9D). The formation of large cell aggregates could add additional mass transfer limitation and further reduce cell growth. The adhesion of cells to PET fibers is important to determine the cell growth in the 3-D matrix.

[11] abbreviates: concentration causing 50% reduction in exponential-phase specific growth rate, drug added one day after seeding.

Regarding `O=c1[nH]cc(F)c(=O)[nH]1` [5-FU, 5-fluorouracil], the “effect on ES tissue constructs” value in the data set on ES cells [1] (100 μg/ml, 3-D high density) was “no significant effect”. Moreover, in the data set with ES cells [1], the “Extent of cell kill” value turned out to be 20% and the “Rf (resistance factor)” value is given as over 1000. Also, the IC50 in the data set on ES cells [2] amounted to 0.045 µg/mL (≈ 0.346 µM). Further, the “Tumor-like response assays, cytotoxicity concentration” value (“Tumor-like response assays” below) with HT-29-GFP [3] (human) was in the range of 10 to 100 µg/mL. Besides, in the data set on embryonic stem cell [4], the “ZEBET IC50” value is 0.09 µg/mL. Besides, in the data set on HT-29-GFP [5] (human), the “2-D with fluorescence, cytotoxicity concentration” value (from here on “2-D with fluorescence”) was in the range of 0.052 to 0.26 µg/mL and the “3-D with fluorescence, cytotoxicity concentration” value (from here on “3-D with fluorescence”) fell in the range of 0.26 to 1.3 µg/mL. The IC50 in the data set on HT-29-GFP [6] (HT-29-GFP 2-D) is under 0.26 µg/mL. Besides, the “effect on HT-29 proliferation in perfusion culture” value in the data set with HT-29 is “significantly reduced cell proliferation; also recorded: significantly inhibited”. The “ECVAM IC50” value in the data set on embryonic stem cell [7] was 0.065 µg/mL. In addition, in the data set with ES cells [8] (setting [11]), the IC50 turned out to be 0.035 µg/mL (≈ 0.269 µM).
On to `C[C@@H]1C[C@H]2[C@@H]3CCC4=CC(=O)C=C[C@]4(C)[C@@]3(F)[C@@H](O)C[C@]2(C)[C@@]1(O)C(=O)CO` [DM, dexamethasone], for which, in the data set on ES cells [1], the “Extent of cell kill” value was 80.9%. For the same molecule, the EC50 in the data set on ES cells [1] (144 h, read-out: EC50) is 65 µg/mL (≈ 166 µM). In the data set on ES cells [1], the “Rf (resistance factor)” value amounted to 5.7. In addition, the figures for the IC50 in the data set on ES cells [2] and with ES cells [8] (setting [11]) were 32 µg/mL (≈ 81.5 µM) and 11.5 µg/mL (≈ 29.3 µM), respectively. Moreover, the “Ig50 in 2-D as times of Ig50 in 3-D” value in the data set with ES cells [8] is 3 times.
Turning to `O=C1NC(=O)C(c2ccccc2)(c2ccccc2)N1` [DPH, diphenylhydantoin], in the data set on ES cells [1], the “Extent of cell kill” value worked out at 52.2% and the “Rf (resistance factor)” value is given as 15.4. The EC50 in the data set on ES cells [1] (144 h, read-out: EC50) turned out to be 600 µg/mL (≈ 2380 µM). In addition, in the data set with ES cells [2], the IC50 was determined as 30 µg/mL (≈ 119 µM). For the same molecule, the IC50 in the data set with ES cells [8] (setting [11]) is 39 µg/mL (≈ 155 µM).
Consider `Nc1ccn([C@@H]2O[C@H](CO)[C@@H](O)C2(F)F)c(=O)n1` [Gemcitabine, gemcitabine], for which, in the data set with HT-29-GFP [3], the “times more resistance in tumor-like structure” value (from here on “times more resistance”) is recorded as “(more than 1000 times” and the “effectiveness on high density colon cancer cells” value is “non-effective)”. Besides, the “Tumor-like response assays” value with HT-29-GFP [3] (human) is over 1000 µM. Further, the “effectiveness on high density colon cancer cells” value in the data set with HT-29-GFP [3] (listed as gemcitabine) is on record as “totally resistant”. Besides, in the data set with HT-29-GFP [5] (human), the “2-D with fluorescence” value was determined as 0.625 µM and the “3-D with fluorescence” value was in the range of 0.001 to 0.005 µM. Further, the IC50 with HT-29-GFP [6] (HT-29-GFP 2-D) was found to be 0.005 µM.
Regarding `CC1(C)S[C@@H]2[C@H](NC(=O)Cc3ccccc3)C(=O)N2[C@H]1C(=O)O` [Penicillin G, penicillin G], in the data set on ES cells [1], the EC50 was 23000 µg/mL (≈ 68800 µM), the “Extent of cell kill” value amounted to 62.3% and the “Rf (resistance factor)” value stood at 30.7. Besides, the “2-D cultures Ig50” value in the data set on ES cells [2] was 4500 µg/mL. The “ZEBET IC50” value in the data set on embryonic stem cell [4] was 2100 µg/mL. The “ECVAM IC50” value in the data set on embryonic stem cell [7] is 2000 µg/mL. In the data set with ES cells [8] (setting [11]), the “3-D cultures Ig50” value was 750 µg/mL. In addition, the “Ig50 in 2-D as times of Ig50 in 3-D” value with ES cells [8] worked out at 6 times.
For the molecule `CCCC(=O)[O-].[Na+]` [Sodium butyrate, sodium butyrate], in the data set with HT-29-GFP [3], the “times more resistance” value is on record as “(about 10 times” and the “time after drug adding at which fluorescence changed” value is “changed one day”. For the same molecule, in the data set on HT-29-GFP [3] (listed as sodium butyrate), the “times more resistance” value was 10 times and the “time after drug adding at which fluorescence changed” value is on record as “one”. The “Tumor-like response assays” value with HT-29-GFP [3] (drug added at high density) lay within 10000 to 100000 µM. Also, the “3-D with fluorescence” value in the data set with HT-29-GFP [5] (3-D low density, lowest concentration causing significant difference of fluorescent kinetics vs control) is 2000 to 8000 µM. In addition, in the data set on HT-29-GFP [5] (lowest concentration causing significant difference of fluorescent kinetics vs control), the “2-D with fluorescence” value fell in the range of 8000 to 32000 µM. Further, in the data set with HT-29-GFP [6], the IC50 came out at 2000 µM.
For Triton X-100, in the data set on ES-GFP cells [9], the “acute cellular response (loss in culture fluorescence)” value was “caused an acute cell death”.
As to fibronectin, the specific growth rate in the data set with ES-GFP cells [10] (PET matrices soaked in 10 μg/ml fibronectin, without coating 0.0335) came out at 0.0458 h⁻¹. The “maximum fluorescence intensity relative to that without fibronectin coating” value in the data set with ES-GFP cells [10] (at 128 h) is about 2.5 times. This molecule also registered a maximum fluorescence intensity in the data set on ES-GFP cells [10] (fibronectin-coated matrix, 128 h) of 4000 RFU. The doubling time in the data set with ES-GFP cells [10] (with fibronectin coating, without coating 20.7) stood at 15.1 h. The “enhancement of specific growth rate” value with ES-GFP cells [10] (with vs without fibronectin coating) was 37%.
